According to article PMC3130785, “Small Compound 6-O-Angeloylplenolin Induces Mitotic Arrest and Exhibits Therapeutic Potentials in Multiple Myeloma” (PLoS ONE, 2011):
Like-named read-outs stand apart in the source and are kept apart here.

Legend:
U266 cells = test: Immunofluorescence analysis of microtubules (anti-α-tubulin); type: cell-based, human; settings: 5 to 7.5 µM for 24 h or 7.5 µM for 12 to 24 h
Procedure: Both control and 6-OAP-treated MM cells were plated on glass slides by centrifugation using a cytospin, air-dried for 5 min at room temperature, and fixed with 4% paraformaldehyde for 15 min. After a brief washing in PBS with 100 mM glycine, slides were blocked with 5% bovine serum albumin (BSA; Sigma) and 0.3% Triton X-100 in PBS for 30 min at room temperature. Microtubules were detected with indicated antibodies diluted 1∶50 in 5% BSA in PBS overnight at 4°C and FITC or rhodamine-conjugated secondary antibodies (Santa Cruz) diluted 1∶200 in 5% BSA in PBS for 1.5 h at 37°C. Cells were then washed three times with PBS. Nuclei were stained with DAPI (Sigma).
Figure 2 6-OAP induces mitotic arrest in MM cells. (A) U266 cells were treated with 6-OAP at 7.5 µM for 0, 24, 48 h and imaged by Leica DMI 400B microscope. (B) U266 cells were treated with 6-OAP at indicated concentrations for 48 h. Cell cycle distribution was determined by flow cytometry. (C) MM.1S cells were treated with 5 µM 6-OAP for 48 h. Cell cycle distribution was determined by flow cytometry. (D) U266 cells were treated with 6-OAP at 5 to 7.5 µM for 24 h (left panel) or at 7.5 µM for 12 to 24 h (right panel). For immunofluorescence analysis of microtubules, cells was stained with an anti-α-tubulin antibody to visualize microtubules (green) and DAPI to counter stained DNA (blue) and observed by confocal microscopy. […]

[1] = test system: human colorectum, liver, stomach, lung, and skin tumor cells; set-up: method as in PMID 20183316; settings: preliminary data; cited from earlier work
[2] = test system: CD138+ primary cells harvested from 7 MM patients; test: MTT assay on primary MM cells; type: cell-based, human
Excerpt: CD138+ cells from 7 MM patients were isolated with informed consent from BM mononuclear cells by using positive immunomagnetic column separation (Miltenyi Biotech, Auburn, CA). The purity of CD138+ cells is above 97% as determined by flow cytometry. BMSCs were generated from a MM patient-derived CD138-negative BM mononuclear cells cultured for 5 weeks. Peripheral blood mononuclear cells (PBMCs) from 5 healthy donors were separated by Ficoll-Hipaque density sedimentation.
U266, RPMI 8226 cells (1×10^4), primary CD138+ cells, PBMCs (5×10^4), and BMSCs (1×10^4) were cultured in 96-well dishes and incubated without or with 6-OAP at indicated concentration for 48 h. MM.1S and MM.1R cells (2×10^4) were seeded into 96-well dishes and pre-cultured for 24 h, then treated with 6-OAP for 48 h. Cell proliferation was determined by MTT assay. Cell viability was estimated by trypan blue dye exclusion.

[3] = Pharmacokinetic study (LC-MS/MS plasma concentration); type: in vivo, Sprague-Dawley rats; settings: rat; for MRT last: read-out: MRT0-t
Procedure: Eight Sprague–Dawley rats (220–250 g, female) were bought from the Laboratory Animal Center of Nanfang Medical University (Guangzhou, China), and maintained and monitored in a specific pathogen-free environment. They were fasted overnight before the experiments. All rat studies were conducted according to protocols approved by the Animal Ethics Committee of our institute. Four rats were administered with 6-OAP (30 mg/kg) by intravenous injection, and the other four rats were inoculated with 6-OAP (40 mg/kg) by intraperitoneal injection. Blood samples of 100–200 µL were collected from the orbit at the time points indicated. The plasma concentrations of 6-OAP were determined by LC-MS/MS. The pharmacokinetic parameters were obtained from the pharmacokinetic software DAS 2.0 (Drug and Statistics Version 2.0).

[4] = female, Sprague-Dawley, in vivo, ip (40 mg/kg)
[5] = female, Sprague-Dawley, in vivo, iv (30 mg/kg)

**Q.** With CC=C(C)C(=O)OC1C2C(CC(C)C3C=CC(=O)C31C)OC(=O)C2C (centres unmarked) [6-OAP, 6-O-angeloylplenolin] as the compound, how does the “cellular microtubule network / mitotic spindle” value (U266 cells) read?
**A.** cellular microtubules assembled to form mitotic spindle

**Q.** And the “proliferation of tumor cells” value [1]?
**A.** could inhibit proliferation

**Q.** What about the “cell growth of CD138+ primary cells” value [2] of the same compound?
**A.** suppressed cell growth

**Q.** And the AUC(0-t) [3, 4]?
**A.** 18000 ± 2700 ng·h/mL

**Q.** What about the Cmax [3, 4] of the same compound?
**A.** 3870 ± 1120 ng/mL

**Q.** And the half-life [3, 4]?
**A.** 4.68 ± 0.463 h

**Q.** And the bioavailability ([3]; female, Sprague-Dawley, in vivo, ip (40 mg/kg), read-out: BA (bioavailability))?
**A.** 92.5%

**Q.** What about the MRT last [3, 4] of the same compound?
**A.** 5.75 ± 1.03 h

**Q.** What about the AUC(0-t) [3, 5] of the same compound?
**A.** 14700 ± 1020 ng·h/mL

**Q.** What about the Cmax [3, 5] of the same compound?
**A.** 16400 ± 1940 ng/mL

**Q.** And the half-life [3, 5]?
**A.** 1.76 ± 0.453 h

**Q.** And the clearance ([3]; female, Sprague-Dawley, in vivo, iv (30 mg/kg), read-out: CLz (converted))?
**A.** 34.1 mL/min/kg

**Q.** And the MRT last [3, 5]?
**A.** 1.44 ± 0.448 h

**Q.** And the Tmax ([3]; female, Sprague-Dawley, in vivo, ip, 40 mg/kg, ip 40 mg/kg, read-out: time of peak concentration (converted))?
**A.** 0.813 h

**Q.** And the Tmax ([3]; female, Sprague-Dawley, in vivo, ip, 40 mg/kg, ip (40 mg/kg), read-out: Tmax)?
**A.** 0.813 ± 0.08 h

**Q.** And the Tmax ([3]; female, Sprague-Dawley, in vivo, iv, 30 mg/kg, iv 30 mg/kg, read-out: time of peak concentration (converted))?
**A.** 0.033 h

**Q.** What about the Tmax ([3]; female, Sprague-Dawley, in vivo, iv, 30 mg/kg, iv (30 mg/kg), read-out: Tmax) of the same compound?
**A.** 0.033 h

**Q.** And the CLz ([3]; ip 40 mg/kg)?
**A.** 37.33 ± 5.58 mL/min/kg

**Q.** And the peak plasma concentration ([3]; ip 40 mg/kg)?
**A.** 11.191 ± 3.225 µM

**Q.** What about the peak plasma concentration ([3]; iv 30 mg/kg) of the same compound?
**A.** 47.506 ± 5.595 µM
